Test results from ChEMBL document CHEMBL3885881, “DrugMatrix”.

Species on record: Rattus norvegicus
Assay: DrugMatrix - Regimen: Daily Repeat
Type: toxicity, organism-based, Sprague-Dawley
Set-up: regimen Daily Repeat, gender Male, age 6-8 weeks
Conditions: in vivo, po, route oral GAVAGE, vehicle .5 % CMC; for ABSOLUTE BASOPHIL / ABSOLUTE EOSINOPHIL / ABSOLUTE LYMPHOCYTE / ABSOLUTE MONOCYTE / ABSOLUTE SEGMENTED NEUTROPHIL / BASOPHIL / EOSINOPHIL / ERYTHROCYTE COUNT / HEMATOCRIT / HEMOGLOBIN / LEUKOCYTE COUNT / LYMPHOCYTE / MEAN CORPUSCULAR HEMOGLOBIN / MEAN CORPUSCULAR HEMOGLOBIN CONCENTRATION / MONOCYTE / NEUTROPHIL / NUCLEATED RED BLOOD CELLS / PLATELET COUNT: tissue Blood; for ALANINE AMINOTRANSFERASE / ALBUMIN / ALKALINE PHOSPHATASE / ASPARTATE AMINOTRANSFERASE / BLOOD UREA NITROGEN / CARBON DIOXIDE / CHLORIDE / CHOLESTEROL / CREATINE PHOSPHOKINASE / CREATININE / GLUCOSE / LACTATE DEHYDROGENASE / LIPASE / PHOSPHORUS / POTASSIUM / SODIUM / TOTAL BILIRUBIN / TOTAL PROTEIN / URIC ACID: tissue Plasma
[1] = 0 mg/kg, 72 h, dose level Control, time 3 day
[2] = 0 mg/kg, 120 h, dose level Control, time 5 day
[3] = 10 mg/kg, 72 h, dose level Low, time 3 day

## O=C1C(CC[S+]([O-])c2ccccc2)C(=O)N(c2ccccc2)N1c1ccccc1 (stereo not given) [SULFINPYRAZONE]
[1]
  ABSOLUTE BASOPHIL: 0 CELLS/uL
  ABSOLUTE EOSINOPHIL: 171.33 CELLS/uL
  ABSOLUTE LYMPHOCYTE: 13776.5 CELLS/uL
  ABSOLUTE MONOCYTE: 180.83 CELLS/uL
  ABSOLUTE SEGMENTED NEUTROPHIL: 1121.33 CELLS/uL
  BASOPHIL: 0%
  EOSINOPHIL: 1%
  ERYTHROCYTE COUNT: 5.56 x10E6/uL
  HEMATOCRIT: 34.75%
  HEMOGLOBIN: 13.68 G/DL
  LEUKOCYTE COUNT: 15.25 x10E3/uL
  LYMPHOCYTE: 90.17%
  MEAN CORPUSCULAR HEMOGLOBIN: 24.6 pg
  MEAN CORPUSCULAR HEMOGLOBIN CONCENTRATION: 39.4 G/DL
  MONOCYTE: 1.17%
  NEUTROPHIL: 7.67%
  NUCLEATED RED BLOOD CELLS: 0 /100WBC
  PLATELET COUNT: 1342 x10E3/uL
  ALANINE AMINOTRANSFERASE: 49.67 u/L
  ALBUMIN: 4.15 G/DL
  ALKALINE PHOSPHATASE: 346.83 u/L
  ASPARTATE AMINOTRANSFERASE: 108.17 u/L
  BLOOD UREA NITROGEN: 17.33 mg/dL
  CARBON DIOXIDE: 25 mmol/L
  CHLORIDE: 100.83 MEQ/L
  CHOLESTEROL: 66.83 mg/dL
  CREATINE PHOSPHOKINASE: 788 u/L
  CREATININE: 0.18 mg/dL
  GLUCOSE: 151.67 mg/dL
  LACTATE DEHYDROGENASE: 982.5 u/L
  LIPASE: 10.33 u/L
  PHOSPHORUS: 11.23 mg/dL
  POTASSIUM: 6.37 MEQ/L
  SODIUM: 141.02 MEQ/L
  TOTAL BILIRUBIN: 0.18 mg/dL
  TOTAL PROTEIN: 5.9 G/DL
  URIC ACID: 1.8 mg/dL
[2]
  ABSOLUTE BASOPHIL: 0 CELLS/uL
  ABSOLUTE EOSINOPHIL: 69 CELLS/uL
  ABSOLUTE LYMPHOCYTE: 13632.83 CELLS/uL
  ABSOLUTE MONOCYTE: 139.83 CELLS/uL
  ABSOLUTE SEGMENTED NEUTROPHIL: 1225 CELLS/uL
  BASOPHIL: 0%
  EOSINOPHIL: 0.33%
  ERYTHROCYTE COUNT: 5.52 x10E6/uL
  HEMATOCRIT: 33.98%
  HEMOGLOBIN: 13.22 G/DL
  LEUKOCYTE COUNT: 15.07 x10E3/uL
  LYMPHOCYTE: 90.83%
  MEAN CORPUSCULAR HEMOGLOBIN: 23.95 pg
  MEAN CORPUSCULAR HEMOGLOBIN CONCENTRATION: 38.9 G/DL
  MONOCYTE: 0.83%
  NEUTROPHIL: 8%
  NUCLEATED RED BLOOD CELLS: 0 /100WBC
  PLATELET COUNT: 1196 x10E3/uL
  ALANINE AMINOTRANSFERASE: 49.17 u/L
  ALBUMIN: 4.2 G/DL
  ALKALINE PHOSPHATASE: 352.33 u/L
  ASPARTATE AMINOTRANSFERASE: 89.67 u/L
  BLOOD UREA NITROGEN: 18 mg/dL
  CARBON DIOXIDE: 27.67 mmol/L
  CHLORIDE: 101 MEQ/L
  CHOLESTEROL: 72.83 mg/dL
  CREATINE PHOSPHOKINASE: 417.5 u/L
  CREATININE: 0.18 mg/dL
  GLUCOSE: 150.5 mg/dL
  LACTATE DEHYDROGENASE: 517.33 u/L
  LIPASE: 9 u/L
  PHOSPHORUS: 11.87 mg/dL
  POTASSIUM: 6.57 MEQ/L
  SODIUM: 143.62 MEQ/L
  TOTAL BILIRUBIN: 0.2 mg/dL
  TOTAL PROTEIN: 6.08 G/DL
  URIC ACID: 1.45 mg/dL
[3]
  ABSOLUTE BASOPHIL: 0 CELLS/uL
  ABSOLUTE EOSINOPHIL: 153.67 CELLS/uL
  ABSOLUTE LYMPHOCYTE: 13327.33 CELLS/uL
  ABSOLUTE MONOCYTE: 157.33 CELLS/uL
  ABSOLUTE SEGMENTED NEUTROPHIL: 995 CELLS/uL
  BASOPHIL: 0%
  EOSINOPHIL: 1%
  ERYTHROCYTE COUNT: 5.31 x10E6/uL
  HEMATOCRIT: 34.03%
  HEMOGLOBIN: 13.67 G/DL
  LEUKOCYTE COUNT: 14.63 x10E3/uL
  LYMPHOCYTE: 91%
  MEAN CORPUSCULAR HEMOGLOBIN: 25.73 pg
  MEAN CORPUSCULAR HEMOGLOBIN CONCENTRATION: 40.17 G/DL
  MONOCYTE: 1%
  NEUTROPHIL: 7%
  NUCLEATED RED BLOOD CELLS: 0 /100WBC
  PLATELET COUNT: 1352.33 x10E3/uL
  ALANINE AMINOTRANSFERASE: 52.33 u/L
  ALBUMIN: 4.23 G/DL
  ALKALINE PHOSPHATASE: 353.33 u/L
  ASPARTATE AMINOTRANSFERASE: 105.67 u/L
  BLOOD UREA NITROGEN: 15.33 mg/dL
  CARBON DIOXIDE: 25.67 mmol/L
  CHLORIDE: 100.33 MEQ/L
  CHOLESTEROL: 80.33 mg/dL
  CREATINE PHOSPHOKINASE: 490.67 u/L
  CREATININE: 0.21 mg/dL
  GLUCOSE: 150.33 mg/dL
  LACTATE DEHYDROGENASE: 722 u/L
  LIPASE: 10.33 u/L
  PHOSPHORUS: 12.1 mg/dL
  POTASSIUM: 6.22 MEQ/L
  SODIUM: 143.2 MEQ/L
  TOTAL BILIRUBIN: 0.2 mg/dL
  TOTAL PROTEIN: 6.03 G/DL
